Data reported in ChEMBL document CHEMBL1143419, “Safety and pharmacokinetics of Bevirimat (PA-457), a novel inhibitor of human immunodeficiency virus maturation, in healthy volunteers” (Antimicrob Agents Chemother, 2007).

Assays:
[1] = Tmax in healthy human plasma at 100 mg, po administered as single dose; format: ADME, organism-based
[2] = Cmax in healthy human plasma at 250 mg, po administered as single dose; format: ADME, organism-based; parameters: dose 250 mg, route oral
[3] = system: Homo sapiens; test: Cmax in heathy human plasma after 100 mg oral dose, normalised for 70 kg subject; format: ADME, organism-based; parameters: dose 100 mg, route oral; details: in vivo
[4] = Cmax in healthy human plasma at 50 mg, po administered as single dose; format: ADME, organism-based; parameters: dose 50 mg, route oral
[5] = Tmax in healthy human plasma at 25 mg, po administered as single dose; format: ADME, organism-based
[6] = system: Homo sapiens; test: Toxicity in healthy human assessed as adverse event occurrence at 100 mg, po administered as single dose; format: organism-based; details: in vivo
[7] = system: Homo sapiens; test: Cmax in healthy human plasma after 50 mg oral dose, normalised for 70 kg subject; format: ADME, organism-based; parameters: dose 50 mg, route oral; details: in vivo
[8] = Drug concentration in healthy human urine assessed as unconjugated drug level at 250 mg, po administered as single dose after 48 hrs; format: ADME, organism-based; details: read-out: Drug uptake
[9] = system: Homo sapiens; test: Toxicity in healthy human assessed as adverse event occurrence at 25 mg, po administered as single dose; format: organism-based; details: in vivo
[10] = AUC (0 to infinity) in healthy human plasma at 100 mg, po administered as single dose; format: ADME, organism-based; parameters: dose 100 mg, route oral, time infinity
[11] = system: Homo sapiens; test: Toxicity in healthy human assessed as adverse event occurrence at 50 mg, po administered as single dose; format: organism-based; details: in vivo
[12] = Cmax in healthy human plasma at 25 mg, po administered as single dose; format: ADME, organism-based; parameters: dose 25 mg, route oral
[13] = AUC (0 to infinity) in healthy human plasma at 250 mg, po administered as single dose; format: ADME, organism-based; parameters: dose 250 mg, time infinity, route oral
[14] = system: Homo sapiens; test: Cmax in healthy human plasma after 25 mg oral dose, normalised for 70 kg subject; format: ADME, organism-based; parameters: dose 25 mg, route oral; details: in vivo
[15] = Tmax in healthy human plasma at 250 mg, po administered as single dose; format: ADME, organism-based
[16] = Apparent oral clearance in healthy human plasma at 100 mg, po administered as single dose; format: ADME, organism-based
[17] = system: Homo sapiens; test: Dose normalized AUC (0 to infinity) in healthy human plasma at 100 mg, po administered as single dose; format: ADME, organism-based; parameters: dose 100 mg, time infinity, route oral; details: in vivo
[18] = system: Homo sapiens; test: Cmax in healthy human plasma after 250 mg oral dose, normalised for 70 kg subject; format: ADME, organism-based; parameters: dose 250 mg, route oral; details: in vivo
[19] = AUC (0 to infinity) in healthy human plasma at 25 mg, po administered as single dose; format: ADME, organism-based; parameters: dose 25 mg, time infinity, route oral
[20] = Half life in healthy human plasma at 25 mg, po administered as single dose; format: ADME, organism-based
[21] = Half life in healthy human plasma at 250 mg, po administered as single dose; format: ADME, organism-based
[22] = Tmax in healthy human plasma at 50 mg, po administered as single dose; format: ADME, organism-based
[23] = system: Homo sapiens; test: Dose normalized AUC (0 to infinity) in healthy human plasma at 50 mg, po administered as single dose; format: ADME, organism-based; parameters: dose 50 mg, time infinity, route oral; details: in vivo
[24] = Apparent oral clearance in healthy human plasma at 250 mg, po administered as single dose; format: ADME, organism-based
[25] = Apparent oral clearance in healthy human plasma at 50 mg, po administered as single dose; format: ADME, organism-based
[26] = Half life in healthy human plasma at 100 mg, po administered as single dose; format: ADME, organism-based
[27] = system: Homo sapiens; test: Toxicity in healthy human assessed as adverse event occurrence at 250 mg, po administered as single dose; format: organism-based; details: in vivo
[28] = Half life in healthy human plasma at 50 mg, po administered as single dose; format: ADME, organism-based
[29] = system: Homo sapiens; test: Dose normalized AUC (0 to infinity) in healthy human plasma at 250 mg, po administered as single dose; format: ADME, organism-based; parameters: dose 250 mg, route oral, time infinity; details: in vivo
[30] = Apparent oral clearance in healthy human plasma at 25 mg, po administered as single dose; format: ADME, organism-based
[31] = system: Homo sapiens; test: Dose normalized AUC (0 to infinity) in healthy human plasma at 25 mg, po administered as single dose; format: ADME, organism-based; parameters: dose 25 mg, time infinity, route oral; details: in vivo
[32] = AUC (0 to infinity) in healthy human plasma at 50 mg, po administered as single dose; format: ADME, organism-based; parameters: dose 50 mg, route oral, time infinity
[33] = Drug concentration in healthy human urine assessed as conjugated drug level at 250 mg, po administered as single dose after 48 hrs; format: ADME, organism-based; details: in vivo

Tmax [1]: 2 h
Cmax [2]: 30000 ng/mL
Cmax [3]: 14900 ng/mL
Cmax [4]: 6060 ng/mL
Tmax [5]: 1.75 h
Cmax [7]: 7300 ng/mL
dose excreted at 48 h [8]: 0.82%
AUC(0-inf) [10]: 983 µg·h/mL
Cmax [12]: 2240 ng/mL
AUC(0-inf) [13]: 1800 µg·h/mL
Cmax [14]: 2800 ng/mL
Tmax [15]: 2.5 h
CL/F [16]: 1.75 mL/h/kg
AUC [17]: 1014 µg·h/mL
Cmax [18]: 31100 ng/mL
AUC(0-inf) [19]: 151 µg·h/mL
half-life [20]: 55.8 h
half-life [21]: 69 h
Tmax [22]: 1 h
AUC [23]: 362.1 µg·h/mL
CL/F [24]: 2.43 mL/h/kg
CL/F [25]: 2.76 mL/h/kg
half-life [26]: 75.4 h
half-life [28]: 56.7 h
AUC [29]: 2221.8 µg·h/mL
CL/F [30]: 2.89 mL/h/kg
AUC [31]: 170.2 µg·h/mL
AUC(0-inf) [32]: 312 µg·h/mL
Drug uptake [33]: 0.82 %ID
SMILES: C=C(C)[C@@H]1CC[C@]2(C(=O)O)CC[C@]3(C)[C@H](CC[C@@H]4[C@@]5(C)CC[C@H](OC(=O)CC(C)(C)C(=O)O)C(C)(C)[C@@H]5CC[C@]43C)[C@@H]12 [BEVIRIMAT]
Activity [6]: 50%
Activity [9]: 16.7%
Activity [11]: 16.7%
Activity [27]: 33.3%
